Assay [1] has as its target T1, myeloperoxidase (Homo sapiens (Human), UniProt P05164). Nature of the assay: MPO Peroxidation Assay (Amplex Red Assay). It counts as biochemical. Conditions: potency range class. On the procedure: MPO Peroxidation Assay (Amplex Red Assay)
MPO peroxidation activity was measured in 100 mM KPi (pH 7.4) by utilizing the non-fluorescent reagent Amplex Red (Invitrogen Cat. #A12222) which can be oxidized to the highly fluorescent resorufin. Amplex Red is oxidized by the peroxidase action of MPO to resorufin. Reactions were carried out in 50 μL total volume by adding a 25 μL mixture of 200 pM myeloperoxidase and 40 nM H2O2(Sigma #349887) to 100 nL inhibitor in 100% DMSO in a 384 well Perkin Elmer Optiplate. Enzyme and compound were preincubated for ten minutes at rt.
After the ten minute preincubation, 25 μL of an Amplex Red mixture containing 200 μM Amplex Red and 10 mM H2O2 was added to the plate. Kinetic determinations were carried out immediately on a Perkin Elmer Envision (15 minute kinetic read, Ex: 535 nm, Em: 590 nm).
IC50 values were calculated by determining the slope of the linear portion of the kinetic trace (180-540 secs), and using that calculated slope to determine % inhibition occurring at each concentration of inhibitor using the following equation:
(§1) [formula] where A=minimal Y value (activity level of inhibited sample), B=maximal Y value (activity level of uninhibited sample), C=Log IC50, D=Hill Slope, x=concentration of inhibitor. MPO Chlorination Assay (APF Assay)

Assay [2] has as its target T1, myeloperoxidase. Nature of the assay: MPO Chlorination Assay (APF Assay). It counts as biochemical. The note with it: potency range class. On the procedure: as §1
MPO chlorination activity was measured in 100 mM KPi (pH 7.4) by utilizing the non-fluorescent reagent Aminophenyl fluorescein (APF, Invitrogen Cat. #A36003). APF is cleaved by (—OCl) to yield the fluorescent compound fluorescein. Reactions were carried out in 50 μL total volume by adding a 25 μL mixture of 200 pM myeloperoxidase and 120 mM NaCl to 100 nL inhibitor in 100% DMSO in a 384 well, non-binding surface clear bottom plate (Corning #3655). Enzyme, inhibitor, and chloride were preincubated for ten minutes at rt.
After the ten minute preincubation, 25 μL of an APF mixture containing […], 120 mM NaCl and 10 μM H2O2 was added to the plate using the internal dispensing system of a Hammatsu FDSS 6000. Kinetic determinations were carried out immediately on the FDSS 6000 (3 minute kinetic read, 1 read every second, ex: 485 nm, em: 535 nm). IC50 values for inhibitors were calculated by taking the slope of the linear portion of the kinetic measurement (20 seconds to ˜80-120 secs). […]
[formula] where A=minimal Y value (activity level of inhibited sample), B=maximal Y value (activity level of uninhibited sample), C=Log IC50, D=Hill Slope, x=concentration of inhibitor.

The source of these data is patent US11059818B2, “Triazolopyridine inhibitors of myeloperoxidase” (BRISTOL-MYERS SQUIBB COMPANY, priority 2016, dated 2021).

T1 sequence (P05164 49-745): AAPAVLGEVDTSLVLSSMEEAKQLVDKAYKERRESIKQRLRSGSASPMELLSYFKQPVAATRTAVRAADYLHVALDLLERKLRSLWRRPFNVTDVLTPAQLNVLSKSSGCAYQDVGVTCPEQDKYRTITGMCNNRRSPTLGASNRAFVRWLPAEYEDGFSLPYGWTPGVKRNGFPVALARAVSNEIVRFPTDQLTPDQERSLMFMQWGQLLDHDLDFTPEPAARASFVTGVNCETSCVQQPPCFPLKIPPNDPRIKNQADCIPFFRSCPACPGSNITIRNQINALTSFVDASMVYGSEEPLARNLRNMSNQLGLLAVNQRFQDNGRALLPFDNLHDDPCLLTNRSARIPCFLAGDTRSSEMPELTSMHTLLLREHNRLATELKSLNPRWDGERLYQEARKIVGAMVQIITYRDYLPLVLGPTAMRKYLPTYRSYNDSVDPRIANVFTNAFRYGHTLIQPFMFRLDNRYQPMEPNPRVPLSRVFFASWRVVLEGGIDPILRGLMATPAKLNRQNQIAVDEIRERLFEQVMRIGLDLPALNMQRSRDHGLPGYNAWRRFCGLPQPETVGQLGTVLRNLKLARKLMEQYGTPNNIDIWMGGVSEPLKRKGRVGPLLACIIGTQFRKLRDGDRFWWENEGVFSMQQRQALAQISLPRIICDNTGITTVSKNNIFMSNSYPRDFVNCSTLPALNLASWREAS

One may read the IC50 as the midpoint of a concentration-inhibition curve. A high value points to weaker potency in that assay. With `Nc1cc(C(CCN[C@H]2CC[C@H](c3ccccc3)CC2)c2cnn(C3CCC(F)(F)C3)c2)c2nn[nH]c2n1` (relative stereo) [Example 27, 7-{1-[1-(3,3-Difluorocyclopentyl)-1H-pyrazol-4-yl]-3-{[trans-4-phenylcyclohexyl]amino}propyl}-3H-[1,2,3]triazolo[4,5-b]pyridin-5-amine], the results for the IC50 at myeloperoxidase [1] and against myeloperoxidase [2] were 101 to 999 nM and 1 to 100 nM, respectively.
`Nc1cc(C(CCCc2ccccc2)c2cnn(Cc3ccc4c(c3)CCNC4)c2)c2nn[nH]c2n1` (stereo not shown) [Example 1, 7-(4-phenyl-1-(1-((1,2,3,4-tetrahydroisoquinolin-6-yl)methyl)-1H-pyrazol-4-yl)butyl)-3H-[1,2,3]triazolo[4,5-b]pyridin-5-amine]: the values for the IC50 against myeloperoxidase [1] and against myeloperoxidase [2] were 1000 to 10000 nM and 1 to 100 nM, respectively.
For `CCCC(c1cnn(Cc2ccc3c(c2)CCNC3)c1)c1cc(N)nc2[nH]nnc12` (stereo not shown) [Example 2, 7-{1-[1-(1,2,3,4-tetrahydroisoquinolin-6-ylmethyl)-1H-pyrazol-4-yl]butyl}-3H-[1,2,3]triazolo[4,5-b]pyridin-5-amine] the same measures were 101 to 999 nM and 101 to 999 nM.
For `CC(c1cnn(Cc2ccc3c(c2)CCNC3)c1)c1cc(N)nc2[nH]nnc12` (stereo not shown) [Example 3, 7-{1-[1-(1,2,3,4-tetrahydroisoquinolin-6-ylmethyl)-1H-pyrazol-4-yl]ethyl}-3H-[1,2,3]triazolo[4,5-b]pyridin-5-amine] the same measures were 101 to 999 nM and 101 to 999 nM.
The matching figures for `Nc1cc(C(CCOCc2ccccc2)c2cnn(Cc3ccc4c(c3)CCNC4)c2)c2nn[nH]c2n1` (stereo not shown) [Example 4, 7-(3-(benzyloxy)-1-(1-((1,2,3,4-tetrahydroisoquinolin-6-yl)methyl)-1H-pyrazol-4-yl)propyl)-3H-[1,2,3]triazolo[4,5-b]pyridin-5-amine]: 1000 to 10000 nM and 101 to 999 nM.
Turning to `Nc1cc(C(CCC(c2ccccc2)c2ccccc2)c2cnn(Cc3ccc4c(c3)CCNC4)c2)c2nn[nH]c2n1` (stereo not shown) [Example 5, 7-{4,4-diphenyl-1-[1-(1,2,3,4-tetrahydroisoquinolin-6-ylmethyl)-1H-pyrazol-4-yl]butyl}-3H-[1,2,3]triazolo[4,5-b]pyridin-5-amine], the IC50 on myeloperoxidase [1] fell in the range of 1000 to 10000 nM; against myeloperoxidase [2] it was 1 to 100 nM.
For `Nc1cc(C(CCCC2CCCCC2)c2cnn(Cc3ccc4c(c3)CCNC4)c2)c2nn[nH]c2n1` (stereo not shown) [Example 6, 7-{4-cyclohexyl-1-[1-(1,2,3,4-tetrahydroisoquinolin-6-ylmethyl)-1H-pyrazol-4-yl]butyl}-3H-[1,2,3]triazolo[4,5-b]pyridin-5-amine] the same measures were 101 to 999 nM and 1 to 100 nM.
As to `Nc1cc(C(CCCc2ccc3ccccc3c2)c2cnn(Cc3ccc4c(c3)CCNC4)c2)c2nn[nH]c2n1` (stereo not shown) [Example 7, 7-[4-(naphthalen-2-yl)-1-[1-(1,2,3,4-tetrahydroisoquinolin-6-ylmethyl)-1H-pyrazol-4-yl]butyl]-3H-[1,2,3]triazolo[4,5-b]pyridin-5-amine], the IC50 on myeloperoxidase [1] fell in the range of 101 to 999 nM; on myeloperoxidase [2], 1 to 100 nM.
For `Nc1cc(C(CCCC2CCc3ccccc32)c2cnn(Cc3ccc4c(c3)CCNC4)c2)c2nn[nH]c2n1` (stereo not shown) [Example 8, 7-[4-(2,3-dihydro-1H-inden-1-yl)-1-[1-(1,2,3,4-tetrahydroisoquinolin-6-ylmethyl)-1H-pyrazol-4-yl]butyl]-3H-[1,2,3]triazolo[4,5-b]pyridin-5-amine] the same measures were 1000 to 10000 nM and 101 to 999 nM.
For `Nc1cc(C(CCCc2cccc3ccccc23)c2cnn(Cc3ccc4c(c3)CCNC4)c2)c2nn[nH]c2n1` (stereo not shown) [Example 9, 7-[4-(Naphthalen-1-yl)-1-[1-(1,2,3,4-tetrahydroisoquinolin-6-ylmethyl)-1H-pyrazol-4-yl]butyl]-3H-[1,2,3]triazolo[4,5-b]pyridin-5-amine] the same measures were 1000 to 10000 nM and 1 to 100 nM.
`Nc1cc(C(CCC2CCOCC2)c2cnn(Cc3ccc4c(c3)CCNC4)c2)c2nn[nH]c2n1` (stereo not shown) [Example 10, 7-[3-(Oxan-4-yl)-1-[1-(1,2,3,4-tetrahydroisoquinolin-6-ylmethyl)-1H-pyrazol-4-yl]propyl]-3H-[1,2,3]triazolo[4,5-b]pyridin-5-amine]: the IC50 is 101 to 999 nM at myeloperoxidase [1] and 1000 to 10000 nM at myeloperoxidase [2].
`Nc1cc(C(CCOc2ccccc2)c2cnn(Cc3ccc4c(c3)CCNC4)c2)c2nn[nH]c2n1` (stereo not shown) [Example 11, 7-{3-Phenoxy-1-[1-(1,2,3,4-tetrahydroisoquinolin-6-ylmethyl)-1H-pyrazol-4-yl]propyl}-3H-[1,2,3]triazolo[4,5-b]pyridin-5-amine]: the IC50 at myeloperoxidase [1] and against myeloperoxidase [2] was 101 to 999 nM each time.
`Nc1cc(C(CCCc2ccccc2)c2cnn(Cc3cccnc3)c2)c2nn[nH]c2n1` (stereo not shown) [Example 12, 7-{4-Phenyl-1-[1-(pyridin-3-ylmethyl)-1H-pyrazol-4-yl]butyl}-3H-[1,2,3]triazolo[4,5-b]pyridin-5-amine] had an IC50 against myeloperoxidase [1] of 101 to 999 nM.
As for `Nc1cc(C(CCCc2ccccc2)c2cnn(Cc3cccc(C4CCNCC4)c3)c2)c2nn[nH]c2n1` (stereo not shown) [Example 13, 7-[4-Phenyl-1-(1-{[3-(piperidin-4-yl)phenyl]methyl}-1H-pyrazol-4-yl)butyl]-3H-[1,2,3]triazolo[4,5-b]pyridin-5-amine], the IC50 against myeloperoxidase [1] lay in the range of 101 to 999 nM; against myeloperoxidase [2], 1 to 100 nM.
For `Nc1cc(C(CCCC2NCCc3ccccc32)c2cnn(Cc3ccccc3)c2)c2nn[nH]c2n1` (stereo not shown) [Example 14, 7-[1-(1-Benzyl-1H-pyrazol-4-yl)-4-(1,2,3,4-tetrahydroisoquinolin-1-yl)butyl]-3H-[1,2,3]triazolo[4,5-b]pyridin-5-amine] the same measures were 101 to 999 nM and 1 to 100 nM.
The matching figures for `Cn1cc(C(CCNCc2ccccc2)c2cc(N)nc3[nH]nnc23)cn1` (stereo not shown) [Example 15, 7-[3-(Benzylamino)-1-(1-methyl-1H-pyrazol-4-yl)propyl]-3H-[1,2,3]triazolo[4,5-b]pyridin-5-amine]: 101 to 999 nM and 1000 to 10000 nM.
Turning to `Nc1cc(C(CCNC2CCC(c3ccccc3)CC2)c2cnn(Cc3ccccc3)c2)c2nn[nH]c2n1` (stereo not shown) [Example 16, 7-[1-(1-Benzyl-1H-pyrazol-4-yl)-3-[(4-phenylcyclohexyl)amino]propyl]-3H-[1,2,3]triazolo[4,5-b]pyridin-5-amine], the half-maximal inhibitory concentration (IC50) against myeloperoxidase [1] is 101 to 999 nM; against myeloperoxidase [2], 1 to 100 nM.
As for `Nc1cc(C(CCNC2CCc3ccccc32)c2cnn(Cc3ccccc3)c2)c2nn[nH]c2n1` (stereo not shown) [Example 17, 7-[1-(1-Benzyl-1H-pyrazol-4-yl)-3-[(2,3-dihydro-1H-inden-1-yl)amino]propyl]-3H-[1,2,3]triazolo[4,5-b]pyridin-5-amine], the IC50 was in the range of 101 to 999 nM against myeloperoxidase [1] and 1 to 100 nM at myeloperoxidase [2].
The matching figures for `Nc1cc(C(CCN[C@H]2CC[C@H](c3ccccc3)CC2)c2cnn(Cc3ccccc3)c2)c2nn[nH]c2n1` (stereo partly shown) [Example 18, 7-[1-(1-Benzyl-1H-pyrazol-4-yl)-3-{[(1r,4r)-4-phenylcyclohexyl]-amino}propyl]-3H-[1,2,3]triazolo 4,5-b pyridin-5-amine]: 1 to 100 nM and 1 to 100 nM.
The matching figures for `Nc1cc(C(CCN[C@H]2CC[C@H](c3ccccc3)CC2)c2cnn(Cc3ccc(Cl)cc3)c2)c2nn[nH]c2n1` (stereo partly drawn) [Example 19, 7-(1-{1-[(4-Chlorophenyl)methyl]-1H-pyrazol-4-yl}-3-{[trans-4-phenylcyclohexyl]amino}propyl)-3H-[1,2,3]triazolo[4,5-b]pyridin-5-amine]: 101 to 999 nM and 1 to 100 nM.
With `Nc1cc(C(CCN[C@H]2CC[C@H](c3ccccc3)CC2)c2cnn(C3CCC3)c2)c2nn[nH]c2n1` (stereo partly shown) [Example 20, 7-[1-(1-Cyclobutyl-1H-pyrazol-4-yl)-3-{[(1r,4r)-4-phenylcyclohexyl]amino}propyl]-3H-[1,2,3]triazolo[4,5-b]pyridin-5-amine], the results for the IC50 against myeloperoxidase [1] and against myeloperoxidase [2] were 101 to 999 nM and 1 to 100 nM, respectively.
For the molecule `Nc1cc(C(CCN[C@H]2CC[C@H](c3ccccc3)CC2)c2cnn(CC3CCC3)c2)c2nn[nH]c2n1` (stereo partly shown) [Example 21, 7-{1-[1-(Cyclobutylmethyl)-1H-pyrazol-4-yl]-3-{[(1 r,4r)-4-phenylcyclohexyl]amino}propyl}-3H-[1,2,3]triazolo[4,5-b]pyridin-5-amine], the concentration for half-maximal inhibition (IC50) against myeloperoxidase [1] and against myeloperoxidase [2] was 101 to 999 nM in each case.
